Test results: patent publication US4347319A, “Microbiological epoxidation process” (priority 1980, dated 1982)
Read-outs that look alike come from different tables or passages of the source.

How the values were obtained:
[1] = system: cell extract of Pichia sp. NRRL-Y-11,328; experiment: Oxidation of secondary alcohols to methylketone by cell extracts of yeasts; assay type: biochemical; conditions: methanol-grown; cell extract + NAD^+; sec. alcohol to methyl ketone; gas chromatography
[2] = system: Torulopsis sp. Strain A1 (NRRLY-11,419); experiment: Oxidation of sec-alcohols to ketones by cell suspensions of yeasts; assay type: cell-based; conditions: sec-alcohol to methyl ketone
[3] = system: Kloeckera sp. Strain A2 (NRRLY-11,420); experiment: as above; assay type: cell-based; conditions: sec-alcohol to methyl ketone
[4] = system: Methylosinus trichosporium CRL 15 NRRL B-11,202; experiment: Sec. alcohol oxidation by cell suspensions of methanol-grown cells; assay type: cell-based; conditions: sec. alcohol to methyl ketone
From the text: (§1) In this example, the procedure of Example 1 was repeated except that a plurality of the methane-utilizing methylotrophic microorganisms of the invention were each aerobically grown in a methanol-containing nutrient medium instead of a methane-containing medium. The nutrients in the medium were the same as indicated in Example 1 except that 0.4% v/v methanol was used as the alcohol dehydrogenase enzyme inducer and major source of carbon and energy for growth. Following growth the cells were harvested and washed as described in Example 1. The resting cells of the induced methanol-grown methylotrophic microorganisms were then contacted with a […] under aerobic conditions in a buffered solution by the procedure described in Example 1.

[5] = system: Methylobacterium organophilum CRL 26 NRRL B-11,222; experiment: as above; assay type: cell-based; conditions: sec. alcohol to methyl ketone
From the text: as §1

[6] = system: Methylocystis parvus CRL 18 NRRL B-11,204; experiment: as above; assay type: cell-based; conditions: sec. alcohol to methyl ketone
From the text: as §1

[7] = system: Methylobacter vinelandii CRL M5Y NRRL B-11,218; experiment: as above; assay type: cell-based; conditions: sec. alcohol to methyl ketone
From the text: as §1

[8] = system: Methylococcus capsulatus CRL M1 NRRL B-11,219; experiment: as above; assay type: cell-based; conditions: sec. alcohol to methyl ketone
From the text: as §1

[9] = system: Methylomonas methanica CRL M4P NRRL B-11,205; experiment: as above; assay type: cell-based; conditions: sec. alcohol to methyl ketone
From the text: as §1

[10] = system: Methylobacter chroococcum CRL M6 NRRL B-11,214; experiment: as above; assay type: cell-based; conditions: sec. alcohol to methyl ketone
From the text: as §1

Pichia sp. NRRL-Y-11328 = experiment: Oxidation of sec-alcohols to ketones by cell suspensions of yeasts; assay type: cell-based; conditions: sec-alcohol to methyl ketone
[11] = system: Hansenula polymorpha ATCC 26012; experiment: as above; assay type: cell-based; conditions: sec-alcohol to methyl ketone
[12] = system: cell extract of Hansenula polymorpha ATCC 26,012; experiment: Oxidation of secondary alcohols to methylketone by cell extracts of yeasts; assay type: biochemical; conditions: methanol-grown; cell extract + NAD^+; sec. alcohol to methyl ketone; gas chromatography
[13] = system: cell extract of Torulopsis sp. strain A1 NRRL-Y-11,419; experiment: as above; assay type: biochemical; conditions: methanol-grown; cell extract + NAD^+; sec. alcohol to methyl ketone; gas chromatography
[14] = system: cell extract of Candida utilis ATCC 26,387; experiment: as above; assay type: biochemical; conditions: methanol-grown; cell extract + NAD^+; sec. alcohol to methyl ketone; gas chromatography
[15] = system: purified secondary alcohol dehydrogenase from Pichia sp. NRRL Y-11,328; experiment: Substrate specificity, electron acceptor and stoichiometry of purified yeast SADH; assay type: biochemical; conditions: examined spectrophotometrically
[16] = system: cell extract of Kloeckera sp. strain A2 NRRL-Y-11,420; experiment: Oxidation of secondary alcohols to methylketone by cell extracts of yeasts; assay type: biochemical; conditions: methanol-grown; cell extract + NAD^+; sec. alcohol to methyl ketone; gas chromatography
[17] = system: Candida utilis ATCC 26387; experiment: Oxidation of sec-alcohols to ketones by cell suspensions of yeasts; assay type: cell-based; conditions: sec-alcohol to methyl ketone
[18] = system: Methylomonas agile (CRL 22 PM9) NRRL B-11,209; experiment: Oxidation by washed cell suspensions of methane-grown cells; assay type: cell-based
Description: (§2) The pH of the nutrient medium was adjusted to 7.0 by the addition of acid or base and 50 ml samples of the nutrient medium were charged into a plurality of 300 ml shaker flasks. The shaker flasks were inoculated with an inoculating loop of cells from an agar plate containing homogeneous colonies of the microorganisms on the plate (the purity of the isolates was confirmed by microscopic examination. The isolates had been maintained on agar plates under an atmosphere of methane and air having a 1:1 v/v gas ratio which had been transferred evey two weeks. The gaseous phase of the inoculated flasks was then replaced with a gas mixture comprised of methane and air having a ratio of 1:1 on a v/v basis. The inoculated flasks were sealed air tight and were incubated on a rotary shaker of orbital radius 2.5 cm at 250 rpm and at 30° C. for two days until turbidity in the medium had developed.
(§3) The cells were harvested by centrifugation at 10,000×g. at 4° C. for 30 minutes. The cell pellet was washed twice with a 0.15 M phosphate buffer at a pH of 7.0 (containing 0.002 M MgCl2). The washed cells were then suspended in a 0.15 M phosphate buffer at pH 7.0.
(§4) A 0.5 ml sample of each washed cell suspension (2 mg cells) was put into 10 ml vials at 4° C. which were sealed with a rubber cap. The gaseous phase of the vials was removed with vacuum and then was replaced with a gas mixture of the oxidative substrate (e.g., methane) and oxygen at a 1:1 v/v ratio. The vials were then incubated at 30 ° C. on a rotary shaker at 300 rpm. Samples of product (3 μl) were withdrawn periodically with a microsyringe and the products were analyzed by gas chromatography (ionization flame detector column).
(§5) The newly discovered and isolated microorganism strains of the present invention were each grown aerobically in the presence of methane in the manner described above. The methane-grown microbial cells were then washed, recovered and put to use in oxidizing an oxidative substrate by the procedure described above except in the case of a liquid substrate 10 μl of the substrate were used.

[19] = system: Methylobacter chroococcum (CRL 23 PM8) NRRL B-11,215; experiment: as above; assay type: cell-based
Description: as §2, §3, §4, §5

[20] = system: Methylococcus minimus (CRL 24 PM12) NRRL B-11,220; experiment: as above; assay type: cell-based
Description: as §2, §3, §4, §5

[21] = system: Methylobacterium organophilum (CRL 26 R6) NRRL B-11,222; experiment: as above; assay type: cell-based
Description: as §2, §3, §4, §5

[22] = system: Methylobacter vinelandii (CRL M5Y) NRRL B-11,218; experiment: as above; assay type: cell-based; conditions: for Conversion Rate: methane-grown cells, n-pentane to 2-pentanone, n-hexane to 2-hexanone
Description: as §2, §3, §4, §5

[23] = system: Methylobacter bovis (CRL 19 PM5) NRRL B-11,217; experiment: as above; assay type: cell-based
Description: as §2, §3, §4, §5

[24] = system: Methylobacter chroococcum (CRL M6) NRRL B-11,214; experiment: as above; assay type: cell-based
Description: as §2, §3, §4, §5

[25] = system: Methylococcus capsulatus (CRL M1) NRRL B-11,219; experiment: as above; assay type: cell-based
Description: as §2, §3, §4, §5

[26] = system: Methylosinus trichosporium (CRL 15 PM1) NRRL B-11,202; experiment: as above; assay type: cell-based
Description: as §2, §3, §4, §5

[27] = system: Methylosinus sporium (CRL 16 PM2) NRRL B-11,203; experiment: as above; assay type: cell-based
Description: as §2, §3, §4, §5

[28] = system: Methylococcus capsulatus (CRL 25 PM13) NRRL B-11,221; experiment: as above; assay type: cell-based
Description: as §2, §3, §4, §5

[29] = system: Methylomonas streptobacterium (CRL 17 PM3) NRRL B-11,208; experiment: as above; assay type: cell-based
Description: as §2, §3, §4, §5

[30] = system: Methylomonas methanica (CRL M4P) NRRL B-11,205; experiment: as above; assay type: cell-based
Description: as §2, §3, §4, §5

[31] = system: Methylomonas albus (CRL M8Y) NRRL B-11,207; experiment: as above; assay type: cell-based
Description: as §2, §3, §4, §5

[32] = system: Methylomonas rosaceus (CRL M10P) NRRL B-11,212; assay type: cell-based
Description: as §2, §3, §4, §5

[33] = system: Methylobacter bovis (CRL M1Y) NRRL B-11,216; experiment: Oxidation by washed cell suspensions of methane-grown cells; assay type: cell-based
Description: as §2, with “The inoculated flasks were sealed air tight and were incubated on a rotary shaker of orbital radius 2.5 cm at 250 rpm and at 30° C. for two days until turbidity in the medium had developed.” left out
as §3, §4, §5

[34] = system: Methylomonas methanica (CRL 21 PM7) NRRL B-11,206; experiment: as above; assay type: cell-based; conditions: methane-grown cells; n-pentane to 2-pentanone, n-hexane to 2-hexanone
Description: as §2, §3, §4, §5

[35] = system: Methylosinus trichosporium OB3b (NRRL B-11,196); experiment: Oxidation by cell suspensions of methane-grown cells; assay type: cell-based; conditions: growth substrate Methane; n-alkane to secondary alcohol
Description: as §2, §3, §4
(§6) The conditions for preparing the cell suspensions or the cell-free particulate fractions from methane-grown methylotroph microorganisms is the same as described above.

[36] = system: Methylococcus capsulatus (Texas, ATCC 19,069); experiment: as above; assay type: cell-based; conditions: growth substrate Methane; n-alkane to secondary alcohol
Description: as §2, §3, §4, §6

[37] = methane-grown cells, n-pentane to 2-pentanone, n-hexane to 2-hexanone

CCCCC(C)O (centres unmarked) [2-Hexanol]
Conversion Rate [1]: 0.60 μmoles/hr/mg Protein | Conversion Rate ([2]; growth substrate Ethanol): 0.20 μmoles/hr/mg of protein | Conversion Rate ([2]; growth substrate Methanol): 0.21 μmoles/hr/mg of protein | Conversion Rate ([2]; growth substrate Methylamine): 0.12 μmoles/hr/mg of protein | Conversion Rate ([2]; growth substrate Methylformate): 0.25 μmoles/hr/mg of protein | Conversion Rate ([2]; growth substrate Propylamine): 0.10 μmoles/hr/mg of protein | Conversion Rate ([3]; growth substrate Ethanol): 0.12 μmoles/hr/mg of protein | Conversion Rate ([3]; growth substrate Methanol): 0.25 μmoles/hr/mg of protein | Conversion Rate ([3]; growth substrate Methylamine): 0.10 μmoles/hr/mg of protein | Conversion Rate ([3]; growth substrate Methylformate): 0.28 μmoles/hr/mg of protein | Conversion Rate ([3]; growth substrate Propylamine): 0.11 μmoles/hr/mg of protein | Conversion Rates [4]: 0.06 μmoles/hr/mg protein | Conversion Rates [5]: 0.09 μmoles/hr/mg protein | Conversion Rates [6]: 0.05 μmoles/hr/mg protein | Conversion Rates [7]: 0.02 μmoles/hr/mg protein | Conversion Rates [8]: 0.08 μmoles/hr/mg protein | Conversion Rates [9]: 0.03 μmoles/hr/mg protein | Conversion Rates [10]: 0.02 μmoles/hr/mg protein | Conversion Rate (Pichia sp. NRRL-Y-11328; growth substrate Ethanol): 0.28 μmoles/hr/mg of protein | Conversion Rate (Pichia sp. NRRL-Y-11328; growth substrate Methanol): 0.50 μmoles/hr/mg of protein | Conversion Rate (Pichia sp. NRRL-Y-11328; growth substrate Methylamine): 0.31 μmoles/hr/mg of protein | Conversion Rate (Pichia sp. NRRL-Y-11328; growth substrate Methylformate): 0.48 μmoles/hr/mg of protein | Conversion Rate (Pichia sp. NRRL-Y-11328; growth substrate Propylamine): 0.21 μmoles/hr/mg of protein | Conversion Rate ([11]; growth substrate Ethanol): 0.54 μmoles/hr/mg of protein | Conversion Rate ([11]; growth substrate Methanol): 0.72 μmoles/hr/mg of protein | Conversion Rate ([11]; growth substrate Methylamine): 0.62 μmoles/hr/mg of protein | Conversion Rate ([11]; growth substrate Methylformate): 0.70 μmoles/hr/mg of protein | Conversion Rate ([11]; growth substrate Propylamine): 0.48 μmoles/hr/mg of protein | Conversion Rate [12]: 0.51 μmoles/hr/mg Protein | Conversion Rate [13]: 0.21 μmoles/hr/mg Protein | Conversion Rate [14]: 0.45 μmoles/hr/mg Protein | oxidation by the purified enzyme [15]: catalyzed the oxidation | Conversion Rate [16]: 0.25 μmoles/hr/mg Protein | Conversion Rate ([17]; growth substrate Ethanol): 0.72 μmoles/hr/mg of protein | Conversion Rate ([17]; growth substrate Methanol): 0.8 μmoles/hr/mg of protein | Conversion Rate ([17]; growth substrate Methylamine): 0.61 μmoles/hr/mg of protein | Conversion Rate ([17]; growth substrate Methylformate): 0.75 μmoles/hr/mg of protein | Conversion Rate ([17]; growth substrate Propylamine): 0.52 μmoles/hr/mg of protein

C=CCC [Butene-1]
Oxidative Conversion Rates [18]: 0.5 | Oxidative Conversion Rates [19]: 0.82 | Oxidative Conversion Rates [20]: 1.5 | Oxidative Conversion Rates [21]: 0.9 | Oxidative Conversion Rates ([22]; methane-grown washed cells, 30° C., methane to methanol, alkene to 1,2-epoxide): 0 μmole/hr/mg protein | Oxidative Conversion Rates [23]: 1.3 | Oxidative Conversion Rates [24]: 0.7 | Oxidative Conversion Rates [25]: 1.3 | Oxidative Conversion Rates [26]: 1.8 | Oxidative Conversion Rates [27]: 1.2 | Oxidative Conversion Rates [28]: 1.9 | Oxidative Conversion Rates [29]: 2.5 | Oxidative Conversion Rates [30]: 2.8 | Oxidative Conversion Rates [31]: 1.8 | Oxidative Conversion Rates [32]: 3.1 | Oxidative Conversion Rates [33]: 1.1

CCCCCC [n-Hexane]
Conversion Rate [22]: 0.01 μmole/hr/mg protein | Conversion Rate [34]: 0.01 μmole/hr/mg protein | Conversion Rate [25]: 0.08 | Conversion Rate [26]: 0.04 | Conversion Rate [35]: 0.01 μmoles/hr/^5 mg. protein | Conversion Rate [36]: 0.01 μmoles/hr/^5 mg. protein

CCCCC [n-Pentane]
Conversion Rate ([21]; growth substrate Methane, n-alkane to secondary alcohol): 0.01 μmoles/hr/^5 mg. protein | Conversion Rate [21, 37]: 0.18 μmole/hr/mg protein | Conversion Rate [22]: 0.04 μmole/hr/mg protein | Conversion Rate [34]: 0.06 μmole/hr/mg protein | Conversion Rate [25, 37]: 0.15 μmole/hr/mg protein | Conversion Rate [26, 37]: 0.08 μmole/hr/mg protein | Conversion Rate [35]: 0.06 μmoles/hr/^5 mg. protein | Conversion Rate [36]: 0.032 μmoles/hr/^5 mg. protein
